What was measured:
[1] = molecular target: hGYS1 enzyme (recombinant hGYS1/GN1 protein) (Homo sapiens (Human), UniProt P13807); test: GYS1 coupled enzyme assay (PK/LDH); type: biochemical; details: hGYS1/GN1 50 nM, UDP-Glucose 0.8 mM, G6P 1 mM; geometric mean of at least 2 runs
[2] = molecular target: hGYS2 enzyme (recombinant hGYS2/GN1 protein) (Homo sapiens (Human), UniProt P54840); test: GYS2 coupled enzyme assay (PK/LDH); type: biochemical; details: geometric mean of at least 2 assay runs on separate days, read-out: Avg_IC50
In short: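 Recombinant hGYS2/GN1 (200 nM) with 2 mM UDP-glucose, 0.2% rabbit liver glycogen, 2 mM glucose-6-phosphate; UDP coupled via PK/LDH (2 mM PEP, 0.6 mM NADH). Buffer 50 mM Tris pH 7.5, 2 mM MgCl2, 100 mM KCl, 2.5% DMSO. A340 slope over 10 min; IC50 from Hill fit of duplicates.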

[3] = system: hGYS1 enzyme / glycogen synthesis in HeLa cells; test: GYS1 cell based assay (glycogen synthesis, Glucose-glo); design: species or system human; details: Homo sapiens, HeLa, 24 h, 24 h incubation, 20 mM glucose, geometric mean of at least 2 runs
In short: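 HeLa cells starved 24 h in medium containing only 1× Glutamax were plated onto compound in medium with 20 mM glucose (1% DMSO final) for 24 h, 37 °C, 5% CO2. Acid lysates were Tris-quenched, glucoamylase-digested (pH 5.3, 1 h, 37 °C) and read by Glucose-glo luminescence. IC50 came from Hill fits, as geometric mean of ≥2 runs.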

Chain of hGYS2 enzyme (recombinant hGYS2/GN1 protein) (P54840 whole entry): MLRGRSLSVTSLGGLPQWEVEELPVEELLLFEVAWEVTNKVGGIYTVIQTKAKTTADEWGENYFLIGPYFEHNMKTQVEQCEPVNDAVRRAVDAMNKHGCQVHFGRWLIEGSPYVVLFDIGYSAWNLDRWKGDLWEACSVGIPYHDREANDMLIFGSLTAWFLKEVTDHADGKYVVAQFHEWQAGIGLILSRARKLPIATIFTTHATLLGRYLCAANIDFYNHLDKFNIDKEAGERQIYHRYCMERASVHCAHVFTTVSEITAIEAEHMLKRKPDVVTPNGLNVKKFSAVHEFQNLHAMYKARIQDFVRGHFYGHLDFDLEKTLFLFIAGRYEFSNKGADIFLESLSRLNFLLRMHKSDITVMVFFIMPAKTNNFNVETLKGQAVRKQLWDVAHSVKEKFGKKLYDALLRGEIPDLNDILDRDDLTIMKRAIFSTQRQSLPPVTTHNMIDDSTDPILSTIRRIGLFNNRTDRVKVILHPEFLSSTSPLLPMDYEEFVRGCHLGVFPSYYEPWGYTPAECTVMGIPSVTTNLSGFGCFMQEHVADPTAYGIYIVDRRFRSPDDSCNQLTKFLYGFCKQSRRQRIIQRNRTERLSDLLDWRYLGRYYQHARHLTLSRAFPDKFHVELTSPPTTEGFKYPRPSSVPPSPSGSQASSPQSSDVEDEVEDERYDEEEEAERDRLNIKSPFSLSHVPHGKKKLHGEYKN
Chain of hGYS2 enzyme (recombinant hGYS2/GN1 protein) (P46976 whole entry partner): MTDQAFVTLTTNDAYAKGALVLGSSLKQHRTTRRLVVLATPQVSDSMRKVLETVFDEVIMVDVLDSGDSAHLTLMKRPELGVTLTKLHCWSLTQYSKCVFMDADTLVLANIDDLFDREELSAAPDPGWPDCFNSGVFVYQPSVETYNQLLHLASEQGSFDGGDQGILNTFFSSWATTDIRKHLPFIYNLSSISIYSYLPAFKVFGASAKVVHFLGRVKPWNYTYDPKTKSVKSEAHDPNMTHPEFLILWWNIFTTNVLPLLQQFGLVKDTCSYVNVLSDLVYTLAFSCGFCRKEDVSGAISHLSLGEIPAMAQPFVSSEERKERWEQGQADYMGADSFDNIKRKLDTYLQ
Chain of hGYS1 enzyme (recombinant hGYS1/GN1 protein) (P13807 whole entry): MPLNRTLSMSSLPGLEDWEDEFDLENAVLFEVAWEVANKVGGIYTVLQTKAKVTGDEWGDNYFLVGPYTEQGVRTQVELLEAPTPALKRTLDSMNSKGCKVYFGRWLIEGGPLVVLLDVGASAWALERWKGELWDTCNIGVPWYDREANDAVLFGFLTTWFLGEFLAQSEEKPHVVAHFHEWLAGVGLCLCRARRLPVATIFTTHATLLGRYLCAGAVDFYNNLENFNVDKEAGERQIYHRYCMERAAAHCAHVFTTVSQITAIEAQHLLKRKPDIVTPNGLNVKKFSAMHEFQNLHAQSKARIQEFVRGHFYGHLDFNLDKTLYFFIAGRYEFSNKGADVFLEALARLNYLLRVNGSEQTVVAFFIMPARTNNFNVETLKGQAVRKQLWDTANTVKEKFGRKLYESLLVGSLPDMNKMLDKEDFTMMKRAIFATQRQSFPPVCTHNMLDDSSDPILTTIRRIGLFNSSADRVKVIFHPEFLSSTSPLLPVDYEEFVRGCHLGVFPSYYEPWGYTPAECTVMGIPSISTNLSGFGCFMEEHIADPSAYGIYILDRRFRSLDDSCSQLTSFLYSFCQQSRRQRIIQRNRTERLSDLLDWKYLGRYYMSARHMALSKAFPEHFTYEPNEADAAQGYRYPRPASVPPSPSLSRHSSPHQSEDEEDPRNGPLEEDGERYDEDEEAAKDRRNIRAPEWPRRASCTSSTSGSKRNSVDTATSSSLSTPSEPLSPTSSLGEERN
Chain of hGYS1 enzyme (recombinant hGYS1/GN1 protein) (P46976 whole entry partner): as the sequence (P46976 whole entry partner) above

IC50 [1] [nM] | IC50 [2] [nM] | IC50 [3] [nM] | SMILES
52 | > 100000 | 2870 | O=C(N[C@@H](c1ccccc1)c1ccc(C2CC2)c(F)c1)[C@@H]1C[C@@H](F)CN1C(=O)CNC(=O)N1CCN(CC2CC2)CC1 [Compound 490, N-{2-[(2S,4R)-2-{[(S)-(4-cyclopropyl-3-fluorophenyl)(phenyl)methyl]carbamoyl}-4-fluoropyrrolidin-1-yl]-2-oxoethyl}-4-(cyclopropylmethyl) piperazine-1-carboxamide]
93 | > 100000 | 5550 | O=C(N[C@@H](c1ccccc1)c1ccc(C2CC2)c(F)c1)[C@@H]1C[C@@H](F)CN1C(=O)Cc1n[nH]c(=O)[nH]1 [Compound 491, (2S,4R)-N-[(S)-(4-cyclopropyl-3-fluorophenyl)(phenyl)methyl]-4-fluoro-1-[2-(5-oxo-4,5-dihydro-1H-1,2,4-triazol-3-yl)acetyl]pyrrolidine-2-carboxamide]
138 | > 100000 | > 30000 | O=C(N[C@@H](c1ccccc1)c1ccc(C2CC2)c(F)c1)[C@@H]1C[C@@H](F)CN1C(=O)Cc1noc(=O)[nH]1 [Compound 492, (2S,4R)-N-[(S)-(4-cyclopropyl-3-fluorophenyl)(phenyl)methyl]-4-fluoro-1-[2-(5-oxo-4,5-dihydro-1,2,4-oxadiazol-3-yl)acetyl]pyrrolidine-2-carboxamide]
66 | > 100000 | 1500 | O=C(N[C@@H](c1ccccc1)c1ccc(C2CC2)c(F)c1)[C@@H]1C[C@@H](F)CN1C(=O)CNC(=O)N1CC(F)(F)C1 [Compound 495, (2S,4R)-N-[(S)-(4-cyclopropyl-3-fluorophenyl)(phenyl)methyl]-1-{2-[(3,3-difluoroazetidine-1-carbonyl)amino]acetyl}-4-fluoropyrrolidine-2-carboxamide]
86 | > 100000 | 1820 | O=C(N[C@@H](c1ccccc1)c1ccc(C2CC2)c(F)c1)[C@@H]1C[C@@H](F)CN1C(=O)CNC(=O)N1CC(C(F)(F)F)C1 [Compound 496, (2S,4R)-N-[(S)-(4-cyclopropyl-3-fluorophenyl)(phenyl)methyl]-4-fluoro-1-(2-{[3-(trifluoromethyl)azetidine-1-carbonyl]amino}acetyl) pyrrolidine-2-carboxamide]
3 | > 100000 | 50 | CCn1c(=O)c(C)cn(CC(=O)N2C[C@H](F)C[C@H]2C(=O)N[C@@H](c2ccccc2)c2ccc(C3CC(F)(F)C3)c(F)n2)c1=O [Compound 501, (2S,4R)—N—((S)-(5-(3,3-difluorocyclobutyl)-6-fluoropyridin-2-yl)(phenyl)methyl)-1-(2-(3-ethyl-5-methyl-2,4-dioxo-3,4-dihydropyrimidin-1(2H)-yl)acetyl)-4-fluoropyrrolidine-2-carboxamide]
10 | > 100000 | 170 | Cc1nn(CC(=O)N2C[C@H](F)C[C@H]2C(=O)N[C@@H](c2ccccc2)c2ccc(C3CC(F)(F)C3)c(F)n2)c(=O)o1 [Compound 502, (2S,4R)-N-[(S)-[5-(3,3-difluorocyclobutyl)-6-fluoropyridin-2-yl](phenyl)methyl]-4-fluoro-1-[2-(5-methyl-2-oxo-2,3-dihydro-1,3,4-oxadiazol-3-yl)acetyl]pyrrolidine-2-carboxamide]
8 | > 100000 | 240 | O=C(N[C@@H](c1ccccc1)c1ccc(C2CC(F)(F)C2)c(F)n1)[C@@H]1C[C@@H](F)CN1C(=O)CNC(=O)N1CCC1 [Compound 503, (2S,4R)-1-{2-[(azetidine-1-carbonyl)amino]acetyl}-N-[(S)-[5-(3,3-difluorocyclobutyl)-6-fluoropyridin-2-yl](phenyl)methyl]-4-fluoropyrrolidine-2-carboxamide]
3 | > 100000 | 60 | O=C(N[C@@H](c1ccccc1)c1ccc(C2CC(F)(F)C2)c(F)n1)[C@@H]1C[C@@H](F)CN1C(=O)Cn1cnc2ccccc21 [Compound 504, (2S,4R)-1-[2-(1H-1,3-benzodiazol-1-yl)acetyl]-N-[(S)-[5-(3,3-difluorocyclobutyl)-6-fluoropyridin-2-yl](phenyl)methyl]-4-fluoropyrrolidine-2-carboxamide]
20 | > 100000 | 350 | O=C(N[C@@H](c1ccccc1)c1ccc(C2CC(F)(F)C2)c(F)n1)[C@@H]1C[C@@H](F)CN1C(=O)Cc1ncco1 [Compound 505, (2S,4R)-N-[(S)-[5-(3,3-difluorocyclobutyl)-6-fluoropyridin-2-yl](phenyl)methyl]-4-fluoro-1-[2-(1,3-oxazol-2-yl)acetyl]pyrrolidine-2-carboxamide]
4 | > 100000 | 370 | Cc1cn(CC(=O)N2C[C@H](F)C[C@H]2C(=O)N[C@@H](c2ccccc2)c2ccc(C3CC(F)(F)C3)c(F)n2)c(=O)[nH]c1=O [Compound 506, (2S,4R)-N-[(S)-[5-(3,3-difluorocyclobutyl)-6-fluoropyridin-2-yl](phenyl)methyl]-4-fluoro-1-[2-(5-methyl-2,4-dioxo-1,2,3,4-tetrahydropyrimidin-1-yl)acetyl] pyrrolidine-2-carboxamide]

More lines, now with the values behind:

SMILES | IC50 [1] [nM] | IC50 [2] [nM] | IC50 [3] [nM]
Cc1ccc2cc(CC(=O)N3C[C@H](F)C[C@H]3C(=O)N[C@@H](c3ccccc3)c3ccc(C4CC4)c(F)c3)ccc2n1 [Compound 480, (2S,4R)-N-[(S)-(4-cyclopropyl-3-fluorophenyl)(phenyl)methyl]-4-fluoro-1-[2-(2-methylquinolin-6-yl)acetyl]pyrrolidine-2-carboxamide] | 79 | > 100000 | 1120
O=C(N[C@@H](c1ccccc1)c1ccc(C2CC2)c(F)c1)[C@@H]1C[C@@H](F)CN1C(=O)Cn1cnnc1 [Compound 481, (2S,4R)-N-[(S)-(4-cyclopropyl-3-fluorophenyl)(phenyl)methyl]-4-fluoro-1-[2-(4H-1,2,4-triazol-4-yl)acetyl]pyrrolidine-2-carboxamide] | 247 | > 100000 | 7770
O=C(N[C@@H](c1ccccc1)c1ccc(C2CC2)c(F)c1)[C@@H]1C[C@@H](F)CN1C(=O)Cc1cccn2c(=O)[nH]nc12 [Compound 482, (2S,4R)-N-[(S)-(4-cyclopropyl-3-fluorophenyl)(phenyl)methyl]-4-fluoro-1-(2-{3-oxo-2H,3H-[1,2,4]triazolo[4,3-a]pyridin-8-yl}acetyl) pyrrolidine-2-carboxamide] | 68 | > 100000 | 1410
CN(C)c1cnn(CC(=O)N2C[C@H](F)C[C@H]2C(=O)N[C@@H](c2ccccc2)c2ccc(C3CC3)c(F)c2)n1 [Compound 483, (2S,4R)-N-[(S)-(4-cyclopropyl-3-fluorophenyl)(phenyl)methyl]-1-{2-[4-(dimethylamino)-2H-1,2,3-triazol-2-yl]acetyl}-4-fluoropyrrolidine-2-carboxamide] | 49 | > 100000 | 720
CN(C)c1cn(CC(=O)N2C[C@H](F)C[C@H]2C(=O)N[C@@H](c2ccccc2)c2ccc(C3CC3)c(F)c2)nn1 [Compound 484, (2S,4R)-N-[(S)-(4-cyclopropyl-3-fluorophenyl)(phenyl)methyl]-1-{2-[4-(dimethylamino)-1H-1,2,3-triazol-1-yl]acetyl}-4-fluoropyrrolidine-2-carboxamide] | 66 | > 100000 | 820
CC(C)(C)OC(=O)NCc1nnc(CC(=O)N2C[C@H](F)C[C@H]2C(=O)N[C@@H](c2ccccc2)c2ccc(C3CC3)c(F)c2)o1 [Compound 485, tert-butyl N-[(5-{2-[(2S,4R)-2-{[(S)-(4-cyclopropyl-3-fluorophenyl)(phenyl)methyl]carbamoyl}-4-fluoropyrrolidin-1-yl]-2-oxoethyl}-1,3,4-oxadiazol-2-yl)methyl]carbamate] | 210 | > 100000 | 3720
CN1CCN(C(=O)NCC(=O)N2C[C@H](F)C[C@H]2C(=O)N[C@@H](c2ccccc2)c2ccc(C3CC3)c(F)c2)CC1 [Compound 486, N-{2-[(2S,4R)-2-{[(S)-(4-cyclopropyl-3-fluorophenyl)(phenyl)methyl]carbamoyl}-4-fluoropyrrolidin-1-yl]-2-oxoethyl}-4-methylpiperazine-1-carboxamide] | 41 | > 100000 | 1020
O=C(N[C@@H](c1ccccc1)c1ccc(C2CC2)c(F)c1)[C@@H]1C[C@@H](F)CN1C(=O)CNC(=O)N1CCN(CC(F)(F)F)CC1 [Compound 487, N-{2-[(2S,4R)-2-{[(S)-(4-cyclopropyl-3-fluorophenyl)(phenyl)methyl]carbamoyl}-4-fluoropyrrolidin-1-yl]-2-oxoethyl}-4-(2,2,2-trifluoroethyl) piperazine-1-carboxamide] | 68 | > 100000 | 2090
COCCN1CCN(C(=O)NCC(=O)N2C[C@H](F)C[C@H]2C(=O)N[C@@H](c2ccccc2)c2ccc(C3CC3)c(F)c2)CC1 [Compound 488, N-{2-[(2S,4R)-2-{[(S)-(4-cyclopropyl-3-fluorophenyl)(phenyl)methyl]carbamoyl}-4-fluoropyrrolidin-1-yl]-2-oxoethyl}-4-(2-methoxyethyl) piperazine-1-carboxamide] | 31 | > 100000 | 880
